Experiment: Log P by HPLC on reversed phase columns (EEC directive 79/831 Annex V.A8; methods [a], [b], [c])
Format: physicochemical
Details: not given
Experimental: Measurement of Log P values was performed according to EEC directive 79/831 Annex V.A8 by HPLC (High Performance Liquid Chromatography) on reversed phase columns with the following methods: • ^[a] Log P value is determined by measurement of LC-UV, in an acidic range, with 0.1% formic acid in water and acetonitrile as eluent (linear gradient from 10% acetonitrile to 95% acetonitrile). • ^[b] Log P value is determined by measurement of LC-UV, in a neutral range, with 0.001 molar ammonium acetate solution in water and acetonitrile as eluent (linear gradient from 10% acetonitrile to 95% acetonitrile). • ^[c] Log P value is determined by measurement of LC-UV, in an acidic range, with 0.1% phosphoric acid and acetonitrile as eluent (linear gradient from 10% acetonitrile to 95% acetonitrile).
If more than one Log P value is available within the same method, all the values are given and separated by “+”.
Calibration was done with straight-chain alkan2-ones (with 3 to 16 carbon atoms) with known Log P values (measurement of Log P values using retention times with linear interpolation between successive alkanones). Lambda-max-values were determined using UV-spectra from 200 nm to 400 nm and the peak values of the chromatographic signals.

| Compound | LogP |
| --- | --- |
| N#Cc1cncn1CC(O)(C#CCC1CCCCC1)CC1CC1 (stereo not shown) [I-428] | 3.29^[a] |
| CC(C)(C)C(O)(Cn1cncc1C#N)c1ccc(F)cc1 (stereo not shown) [I-347] | 2.51^[a] |
| N#Cc1cncn1CC(=O)c1ccc(Oc2ccc(S(F)(F)(F)(F)F)cc2)nc1C(F)(F)F [IX-135] | 3.55^[a] |
| CC(C)(C)C(O)(C#CCC1CCCCC1)Cn1cncc1C#N (stereo not shown) [I-541] | 3.72^[a] |
| CC(=O)c1cncn1CC(C)(O)c1ccc(Oc2ccc(C(C)C)cc2)nc1C(F)(F)F (stereo not shown) [I-299] | 3.33^[a] |
| N#Cc1cncn1CC(O)(CC1CC1)c1cc(F)c(F)c(F)c1 (stereo not shown) [I-501] | 2.51^[a] |
| COCOC(Cn1cncc1C#N)c1ccc(Oc2ccc(Cl)cc2)cc1C(F)(F)F (stereo not shown) [I-82] | 4.03^[a] |
| N#Cc1cncn1CC(O)(c1cc(F)c(Cl)cc1Cl)C1(Cl)CC1 (stereo not shown) [I-585] | 2.75^[a] |
| CC(O)(Cn1cncc1Cl)c1ccc(Oc2ccc(Cl)cc2)cc1Br (stereo not shown) [I-171] | 2.82^[a] |
| N#Cc1cncn1CC(O)(c1ccc(Cl)c(F)c1)C1(F)CC1 (stereo not shown) [I-446] | 2.44^[a] |
| CC(C)C(O)(Cn1cncc1C#N)c1ccc(F)cc1Cl (stereo not shown) [I-425] | 2.60^[a] |
| COC(C)(Cn1cncc1Br)c1ccc(Oc2ccc(Br)cc2)cc1C(F)(F)F (stereo not shown) [I-200] | 3.89^[a] |
| CC(O)(Cn1cncc1Br)c1ccc(Oc2ccc(Cl)cc2)cc1 (stereo not shown) [I-165] | 2.30^[a] |
| CC(C)(C)CC(O)(Cn1cncc1C#N)c1ccc(C(F)(F)F)cc1 (stereo not shown) [I-272] | 3.35^[a] |
| N#Cc1cncn1CC(O)c1ccc(Oc2ccc(Cl)nc2)cc1C(F)(F)F (stereo not shown) [I-10] | 2.59^[a] |
| N#Cc1cncn1CC(O)(CCCC1CCCCC1)C1(F)CC1 (stereo not shown) [I-672] | 3.71^[a] |
| N#Cc1cncn1CC(O)(c1ccc(F)c(F)c1F)C1(F)CC1 (stereo not shown) [I-634] | 2.18^[a] |
| N#Cc1cncn1CC(O)(c1cc(Cl)c(Cl)cc1F)C1(F)CC1 (stereo not shown) [I-589] | 2.68^[a] |
| CC(O)(Cn1cncc1C#N)c1cnc(Oc2ccc(Br)nc2)cc1C(F)(F)F (stereo not shown) [I-362] | 2.58^[a] |
| COc1ccc(C(O)(Cn2cncc2C#N)C2(F)CC2)c(Cl)n1 (stereo not shown) [I-549] | 1.99^[a] |
| N#Cc1cncn1CC(O)(c1cc(Cl)ccc1Cl)C1(Cl)CC1 (stereo not shown) [I-336] | 2.56^[a] |
| N#Cc1cncn1CC(O)(c1cc(Br)cc(Br)c1)C1(F)CC1 (stereo not shown) [I-469] | 2.82^[a] |

| Compound | LogP |
| --- | --- |
| OC(Cn1cncc1Cl)c1ccc(Oc2ccc(Cl)cn2)cc1Cl (stereo not shown) [I-37] | 1.98^[a] |
| N#Cc1cncn1CC(O)(c1ccc(Cl)cc1F)C1CCCC1 (stereo not shown) [I-458] | 3.12^[a] |
| N#Cc1cncn1CC(O)(c1cnc(Cl)cc1Cl)C1(F)CC1 (stereo not shown) [I-526] | 1.90^[a] |
| COC(C)(Cn1cncc1C#N)c1ccc(Oc2ccc(Br)cc2)cc1C(F)(F)F (stereo not shown) [I-296] | 4.51^[a] |
| Cc1ccc(C(C)(O)Cn2cncc2C#N)cc1 (stereo not shown) [I-340] | 1.75^[a] |
| N#Cc1cncn1CC(O)c1ccc(Cl)cc1 (stereo not shown) [I-112] | 1.53^[a] |
| CC(O)(Cn1cncc1Cl)c1ccc(Oc2ccc(Br)cc2)cc1Cl (stereo not shown) [I-173] | 2.80^[a] |
| OC(Cn1cncc1Cl)c1ccc(Oc2ccc(F)cc2)cc1Cl (stereo not shown) [I-03] | 2.28^[a] |
| C[Si](C)(C)CC(O)(Cn1cncc1C#N)c1ccccc1F (stereo not shown) [I-271] | 3.17^[a] |
| Cc1ccc(Oc2ccc(C(O)Cn3cncc3Cl)c(Cl)c2)cc1 (stereo not shown) [I-02] | 2.50^[a] |
| N#Cc1cncn1CC(O)(c1ccc(Cl)c(F)c1F)C1(Cl)CC1 (stereo not shown) [I-629] | 2.60^[a] |
| OC(Cn1cncc1Cl)c1ccc(Oc2ccc(OC(F)(F)F)cc2)c(Br)c1 (stereo not shown) [I-05] | 2.82^[a] |
| CC(C)CC(O)(Cn1cncc1C#N)c1ccc(Cl)cc1 (stereo not shown) [I-285] | 2.70^[a] |
| OC(Cn1cncc1Cl)c1ccc(Oc2ccc(C(F)(F)F)cc2)cc1Cl (stereo not shown) [I-09] | 2.82^[a] |
| CC(O)(Cn1cncc1Cl)c1ccc(Oc2ccc(I)cc2)cc1Br (stereo not shown) [I-187] | 3.25^[a] |
| CC(C)(C)C(O)(Cn1cncc1C#N)c1cc(F)cc(F)c1 (stereo not shown) [I-457] | 2.64^[a] |
| N#Cc1cncn1CC(O)c1cnc(Oc2ccc(C(F)(F)F)cc2)cc1Cl (stereo not shown) [I-127] | 2.96^[a] |
| CC(O)(Cn1cncc1C#N)c1cnc(Oc2ccc(C(F)(F)F)cc2)cc1C(F)(F)F (stereo not shown) [I-251] | 3.51^[a] |
| N#Cc1cncn1CC(O)(C#Cc1cc(F)cc(F)c1)C1(Cl)CC1 (stereo not shown) [I-319] | 2.59^[a] |
| CC(O)(Cn1cncc1Cl)c1cnc(Oc2ccc(Cl)cc2)cc1Cl (stereo not shown) [I-162] | 2.41^[a] |
| COC(Cn1cncc1C#N)c1ccc(Oc2ccc(Cl)cc2)cc1C(F)(F)F (stereo not shown) [I-81] | 4.15^[a] |
| CC(O)(Cn1cncc1C#N)c1ccc(Oc2ccc(Br)cc2)cc1F (stereo not shown) [I-191] | 3.29^[a] |

| Compound | LogP |
| --- | --- |
| CC(O)(Cn1cncc1C#N)c1ccc(Oc2ccc(Br)nc2)nc1C(F)(F)F (stereo not shown) [I-364] | 2.44^[a] |
| N#Cc1cncn1CC(O)(c1ccc(Br)nc1Cl)C1(F)CC1 (stereo not shown) [I-683] | 2.01^[a] |
| N#Cc1cncn1CC(O)(c1cc(Cl)c(Cl)cc1Cl)C1(Cl)CC1 (stereo not shown) [I-562] | 2.98^[a] |
| CCOC(Cn1cncc1Br)c1ccc(Oc2ccc(Cl)cc2)cc1C(F)(F)F (stereo not shown) [I-33] | 4.16^[a] |
| OC(Cn1cncc1Cl)c1ccc(Oc2ccc(Cl)cn2)cc1C(F)(F)F (stereo not shown) [I-65] | 2.21^[a] |
| N#Cc1cncn1CC(O)(c1ccc(F)cc1)C1(Cl)CC1 (stereo not shown) [I-248] | 2.21^[a] |
| N#Cc1cncn1CC(O)(c1ccc(Oc2ccccc2)cc1)C1(Cl)CC1 (stereo not shown) [I-281] | 3.19^[a] |
| OC(Cn1cncc1F)c1cnc(Oc2ccc(Cl)cc2)cc1C(F)(F)F (stereo not shown) [I-119] | 2.23^[a] |
| CC(O)(Cn1cncc1C#N)c1ccc(Oc2ccc(Cl)cc2)cc1C(F)(F)F (stereo not shown) [I-209] | 3.51^[a] |
| N#Cc1cncn1CC(O)(C#CCC1CCCCC1)C1CCC1 (stereo not shown) [I-592] | 3.51^[a] |
| N#Cc1cncn1CC(O)c1ccc(Oc2ccc(C(F)(F)F)cc2)nc1C(F)(F)F (stereo not shown) [I-149] | 3.13^[a] |
| CC(C)(C)CC(O)(Cn1cncc1C#N)C1(F)CC1 (stereo not shown) [I-374] | 2.44^[a] |
| CC(C)(C)CC(O)(Cn1cncc1C#N)c1ccc(F)cc1 (stereo not shown) [I-226] | 2.90^[a] |
| CC(O)(Cn1cncc1F)c1cnc(Oc2ccc(Cl)cc2F)cc1C(F)(F)F (stereo not shown) [I-229] | 2.43^[a] |
| CC(O)(Cn1cncc1C(F)(F)F)c1ccc(Oc2ccc(Cl)cc2)cc1F (stereo not shown) [I-205] | 3.83^[a] |
| CC(C)(C)C(O)(Cn1cncc1C#N)c1ccc(F)cc1F (stereo not shown) [I-385] | 2.71^[a] |
| N#Cc1cncn1CC(O)(CC1CC1)c1cccc(F)c1F (stereo not shown) [I-517] | 2.20^[a] |
| N#Cc1cncn1CC(O)(CC1CC1)c1ccc(C(F)(F)F)cc1Br (stereo not shown) [I-436] | 2.90^[a] |
| NC(=S)c1cncn1CC(O)(c1ccc(Cl)cc1Br)C1(F)CC1 (stereo not shown) [I-505] | 1.92^[a] |
| C=CCC(O)(Cn1cncc1C#N)C1(Cl)CC1 (stereo not shown) [I-669] | 1.98^[a] |
| N#Cc1cncn1CC(O)(C#CCC1CCCCC1)CC1CC1 (stereo not shown) [I-593] | 3.33^[a] |
| OC(Cn1cncc1Br)c1ccc(Oc2ccc(I)cc2)cc1Br (stereo not shown) [I-109] | 2.78^[a] |

| Compound | LogP |
| --- | --- |
| N#Cc1cncn1CC(O)(c1ccc(Cl)c(F)c1Cl)C1(Cl)CC1 (stereo not shown) [I-617] | 2.64^[a] |
| N#Cc1cncn1CC(O)(c1cccc(Cl)c1F)C1(F)CC1 (stereo not shown) [I-558] | 2.21^[a] |
| N#Cc1cncn1CC(O)c1ccc(Oc2ccc(Cl)cn2)cc1C(F)(F)F (stereo not shown) [I-66] | 2.75^[a] |
| CC(O)(Cn1cncc1C(F)(F)F)c1ccc(Oc2ccc(Cl)cc2)cc1Cl (stereo not shown) [I-183] | 4.25^[a] |
| N#Cc1cncn1CC(O)c1ccc(Oc2ccc(C(F)(F)F)cc2)cc1C(F)(F)F (stereo not shown) [I-53] | 3.52^[a] |
| CC(C)(C)C(O)(Cn1cncc1C#N)c1ccc(Cl)c(Cl)c1 (stereo not shown) [I-456] | 3.16^[a] |
| N#Cc1cncn1CC(O)(c1cccc(F)c1F)C1(F)CC1 (stereo not shown) [I-524] | 2.02^[a] |
| C[Si](C)(C#CC(O)(Cn1cncc1C#N)C1(F)CC1)c1ccccc1 (stereo not shown) [I-595] | 3.04^[a] |
| N#Cc1cncn1CC(O)(C#CC1(c2ccccc2)CC1)C1(Cl)CC1 (stereo not shown) [I-606] | 2.90^[a] |
| N#Cc1cncn1CC(O)(c1ccc(Cl)cc1Cl)C1(Cl)CC1 (stereo not shown) [I-235] | 2.67^[a] |
| CC(O)(Cn1cncc1F)c1ccc(Oc2ccc(Cl)cc2)nc1F (stereo not shown) [I-214] | 1.98^[a] |
| N#Cc1cncn1CC(O)c1cnc(Oc2ccc(Cl)nc2)cc1C(F)(F)F (stereo not shown) [I-152] | 2.32^[a] |
| CCCC(C)C(O)(Cn1cncc1C#N)c1ccc(Cl)cc1 (single isomer, unassigned) [I-327] | 3.08^[a] |
| CC(O)(Cn1cncc1C#N)c1ccc(Oc2ccc(Cl)cc2)cc1Cl (stereo not shown) [I-182] | 3.51^[a] |
| N#Cc1cncn1CC(O)(c1cc(F)c(Cl)cc1Br)C1(F)CC1 (stereo not shown) [I-525] | 2.65^[a] |
| COC(Cn1cncc1C(F)(F)F)c1ccc(Oc2ccc(Cl)cc2)cc1F (stereo not shown) [I-93] | 4.34^[a] |
| CC(C)(C)C(O)(Cn1cncc1C#N)c1ccc(Cl)cc1Cl (stereo not shown) [I-310] | 3.37^[a] |
| N#Cc1cncn1CC(O)(c1ccccc1C(F)(F)F)C1CC1 (stereo not shown) [I-330] | 2.35^[a] |
| CC(C)(C)CC(O)(Cn1cncc1C#N)c1ccc(C(F)(F)F)cc1Cl (stereo not shown) [I-268] | 3.85^[a] |
| N#Cc1cncn1CC(O)(c1ccc(Br)c(Cl)c1Cl)C1(F)CC1 (stereo not shown) [I-681] | 2.80^[a] |

Same assay, conditions: reversed phase HPLC column; method [a]: LC-UV, acidic range, 0.1% formic acid in water and acetonitrile as eluent (linear gradient from 10% to 95% acetonitrile)

| Compound | chromatographic logP |
| --- | --- |
| N#Cc1cncn1CC(=O)c1cccc(Cl)c1F [IX-148] | 2.02 |
| CC(=O)c1cncn1CC(=O)c1ccc(Oc2ccc(Cl)cc2)nc1C(F)(F)F [IX-119] | 3.13 |

Source: patent publication US20200031778A1, “NOVEL 5-SUBSTITUTED IMIDAZOLYLMETHYL DERIVATIVES” (Bayer CropScience Aktiengesellschaft, priority 2016, published 2020)
